Results: PubChem BioAssay (NCI)
Several values for one entry are separate records, joined by “and”; a condition that tells them apart may be missing. Identical values can stand only once.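 The compound was tested at five concentrations on cells cultured in 96-well plates, with a 48-hour exposure period. GI50: concentration for 50% inhibition of growth. TGI marks complete inhibition of growth.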

How the values were obtained:
Assay in all cases: NCI-60 cell line screen, 48 h
[1] = system: A549 NSCLC
[2] = system: PC-3 prostate
[3] = system: KM12 colon
[4] = system: UO-31 renal
[5] = system: TK-10 renal
[6] = system: MDA-MB-435
[7] = system: OVCAR-3 ovarian
[8] = system: SNB-19 CNS
[9] = system: HL-60(TB) leukemia
[10] = system: COLO 205 colon

SMILES | GI50 [1] | TGI [1] | TGI [2] | GI50 [3] | TGI [3] | GI50 [4] | TGI [4] | GI50 [5] | TGI [5] | GI50 [6] | TGI [6] | GI50 [7] | TGI [7] | GI50 [8] | TGI [8] | TGI [9] | TGI [10] | GI50 [2] | GI50 [9] | GI50 [10]
CC[C@H](CO)Nc1nc(NCc2ccccc2)c2ncn(C(C)C)c2n1 | 20.1 µM | > 100 µM | 70 µM | 10.6 µM | 60.2 µM | 16.7 µM | 96.9 µM | 44.9 µM | > 100 µM | 20.1 µM | > 73.6 µM | 12.9 µM | > 67.4 µM | 26.4 µM | > 100 µM | > 79.9 µM | 36.6 µM | – | – | –
CN(C)C(=O)c1cnc2oc3ccc(O)cc3c2c1-c1ccccc1 | > 25 µM | > 25 µM | > 25 µM | > 25 µM | > 25 µM | 20.5 µM | > 25 µM | > 25 µM | > 25 µM | > 25 µM | > 25 µM | > 25 µM | > 25 µM | – | – | > 25 µM | – | 16.6 µM | > 25 µM | –
COc1ccc(CC(=O)c2ccc(O)cc2O)cc1 | > 100 µM | > 100 µM | > 100 µM | > 100 µM | > 100 µM | 15.4 µM | > 100 µM | – | – | > 100 µM | > 100 µM | 61.5 µM | > 100 µM | > 100 µM | > 100 µM | > 100 µM | > 100 µM | 41.1 µM | 40.9 µM | > 100 µM
COC(=N)c1c(N)[n+]([O-])c2ccc(F)cc2[n+]1[O-] | > 100 µM | > 100 µM | > 100 µM | > 100 µM | > 100 µM | > 100 µM | > 100 µM | > 100 µM | > 100 µM | > 100 µM | > 100 µM | > 100 µM | > 100 µM | > 100 µM | > 100 µM | > 100 µM | > 100 µM | > 100 µM | > 100 µM | 61.7 µM
Nc1ccccc1C#C/C=C\C#Cc1cccc(O)c1 | 2.78 µM | 15.7 µM | 42.7 µM | 2.61 µM | 11.7 µM | – | 13.9 µM | 8.73 µM | 29.7 µM | 1.5 µM | 4.12 µM | 2.73 µM | 14.7 µM | 17.1 µM | > 55.7 µM | 21.2 µM | 23 µM | 6.5 µM | 4.15 µM | 8.45 µM
N#Cc1nc2c(S(=O)(=O)c3ccc(Cl)cc3)c(N)n(CCCN3CCOCC3)c2nc1C#N | 19.5 µM | 84.1 µM | 95.4 µM | 12.3 µM | 34.7 µM | 4.58 µM | > 100 µM | 10.1 µM | 23.6 µM | 2.21 µM | 5.82 µM | 3.29 µM | 15.3 µM | 28.2 µM | > 100 µM | 6.55 µM | 13.6 µM | 26.7 µM | 2.14 µM | 3.45 µM
COc1cc(/C=C/C(=O)c2ccc(F)cc2)ccc1OCCCN1CCN(CC(=O)Nc2ccc(Cl)cc2C(=O)c2ccccc2Cl)CC1 | 15.9 µM | > 100 µM | 45.7 µM | 5.58 µM | 22.2 µM | 2.45 µM | 20 µM | 10.4 µM | 26.1 µM | 8.19 µM | 22.5 µM | 11.3 µM | 27.2 µM | 18.9 µM | 49.2 µM | 25.9 µM | 23.8 µM | 5.06 µM | 4.23 µM | 4.47 µM
O=C1c2ccc3c4c(ccc(c24)C(=O)N1CCCNCc1ccccc1Cl)C(=O)N(CCCNCc1ccccc1Cl)C3=O | 0.23 µM | 0.833 µM | 1.56 µM | 0.17 µM | 0.637 µM | – | – | 0.179 µM | 0.724 µM | 0.12 µM | 0.332 µM | 0.132 µM | 0.345 µM | 0.314 µM | 0.987 µM | 2.11 µM | 0.166 µM | 0.268 µM | 0.904 µM | 0.0896 µM
Cc1cnc(CNC(=O)c2c(=O)c3ccc(N4CCCN(C)CC4)nc3n3c2sc2ccccc23)cn1 | 0.33 µM | 7.23 µM | 9.7 µM | 1.5 µM | 10.1 µM | 3.03 µM | 21.3 µM | 8.94 µM | 23 µM | 5.4 µM | 21.3 µM | 7.2 µM | 22 µM | 1.52 µM | 10.1 µM | 31.3 µM | 22.8 µM | 4.04 µM | 11.2 µM | 1.07 µM
O=[N+]([O-])c1ccc(N=Nc2ccc(O)c3ccccc23)cc1 | 12 µM | > 100 µM | > 100 µM | 3.21 µM | > 100 µM | 5.42 µM | > 100 µM | 2.81 µM | > 100 µM | 5.31 µM | 19.1 µM | 1.77 µM | 6 µM | 4.76 µM | > 100 µM | 21 µM | 32.1 µM | 1.67 µM | 5.39 µM | 13.2 µM
O=[N+]([O-])c1ccc(N2CCC(CCCC3CCN(c4ccc([N+](=O)[O-])cc4[N+](=O)[O-])CC3)CC2)c([N+](=O)[O-])c1 | – | 31.8 µM | 33.7 µM | – | 30.7 µM | – | 26.9 µM | – | 32.7 µM | – | 26.8 µM | – | 34.5 µM | – | 34.8 µM | 35.9 µM | 31.8 µM | – | – | –
O=c1c(O)c(-c2ccc(O)c(O)c2)oc2cc(O)cc(O)c12 | 19.3 µM | > 100 µM | > 100 µM | 9.4 µM | 59.3 µM and > 100 µM | 8.48 µM | > 100 µM | 49.4 µM | > 100 µM | 5.08 µM | > 100 µM | 16 µM | 49.2 µM and > 100 µM | 13.1 µM | > 100 µM | 65.3 µM and 47.8 µM | > 100 µM | 18.7 µM | 10.9 µM | 60.8 µM
COc1ccc(/C=C(\C(=O)NCc2cccnc2)S(=O)(=O)c2ccccc2)cc1OC | 2.86 µM | 13.4 µM | 14.5 µM | 2.81 µM | 8.61 µM | 2.69 µM | 11.3 µM | 5.57 µM | 18.1 µM | 2.74 µM | 10.9 µM | 3.22 µM | 11.4 µM | 3.69 µM | 13.1 µM | 6.42 µM | 6.63 µM | 3.5 µM | 2.01 µM | 2.77 µM
